Laboratory results as given in patent US20250275938A1, “COMPOSITIONS AND METHODS FOR TREATMENT OF CANCER” (SCIROSBIO (FZC), priority 2022, published 2025).

Key:
[1] = tested on: U87MG human glioma cell line; experiment: MTT cell viability assay, U87MG; format: cell-based; settings: for IC50: Homo sapiens, U-87 MG, individual drug, mean ± SD, no unit in table, test concentrations given in μM, read-out: Inhibitory Concentration at 50% (IC50) U87MG Cells; for IC50 / cell viability / anti-proliferative effect (MTT), in words: 24 hours; for cell viability / anti-proliferative effect (MTT), in words: U87MG
Method: (§1) Cell lines and culture conditions. A human glioma cell line, U87MG, a rat glioma cell line, C6, and normal HEK293T (Human Embryonic Kidney) cells were obtained from National Centre for Cell Science (NCCS), Pune, India. The cells were sub-cultured in Dulbecco's Modified Eagle's Medium (DMEM) supplemented with 10% FBS at 5% CO2 and 37° C. At 85% confluence, the cells were harvested using 0.25% trypsin and seeded in 25 cm^2 flasks, 96 well, and 6-well plates, according to the experiment being performed. The cells were allowed to attach 70% to the surface prior to treatment. A stock solution of all the drugs (10 mg/ml) was made in a vehicle and diluted to the required concentrations. Suspensions were aspirated 10 times before treatment. Cells treated with vehicle control were used as a control.
(§2) Cell viability assay. U87MG and C6 cells (5×10^3 cells/ml) were seeded in 96-well plates and exposed to different individual-drug treated groups with varying concentrations (0, 10, 40, 80, 120, and 160 μM) for a period of 24 hours, whereas HEK293T cells (5×10^3 cells/ml) were seeded at the inhibitory concentration (IC) at 50% of drugs, either alone or in combination. The individual-treated groups include Group I: untreated control glioma cells; Group II: TMZ-treated glioma cells; Group III: MET-treated glioma cells; and Group IV: EGCG-treated glioma cells.
(§3) After a 24 hour treatment period, the cells were allowed to react with MTT for 4 hours in dark at 37° C. At the end of the incubation period, the dark purple formazan crystals formed were solubilized with DMSO and the absorbance was measured spectrophotometrically at 595 nm (Molecular Devices Spectra-Max M5, USA). The experiments were repeated at least three times. To determine the cell viability, the percentage of viability was calculated as follows:
(§4) % viability=[(Optical density {OD} of treated cells−OD of Blank)/(OD of control−OD of blank)]×100.
(§5) Calculation of IC50 value. The IC50 of a drug was determined using y=m(x)+c equation (where: ‘y’ & ‘x’ are the respective coordinates of y & x-axis, ‘m’ is the slope and ‘c’ is the constant) derived from the trendlines of each scattered plots MMT assay. […] The IC50 and IC25 were also calculated for the dual combinations. The IC50 for the triple combination was calculated by keeping the IC25 of the dual-combination constant, and the third drug was used in varying concentrations (0, 10, 40, 80, 120, and 160 μM) (Table 1).
(§6) Combination index of drugs. According to the Chou-Talalay method, The statistical Combination Index (CI) of the drugs was performed according to the Chou-Talay method (Ma et al, Stem Cell Reports, 2017 9(6):1948-1960) to determine whether various drug combinations were synergistic, additive, or antagonistic, as shown in Table 1. This was performed for Groups V-IX using the following formula:
(§7) Combination index (CI) of Drugs 1 & 2=(IC50 of drug-1 in combination/IC50 of drug-1 individually)+(IC50 of drug-2 in combination/IC50 of drug-2 individually).

C6 glioma cells = experiment: AO/EtBr dual staining for apoptosis, C6; format: cell-based, rat; settings: respective IC50 concentrations
From the text: (§8) AO/EtBr are fluorescent nuclear stains, which distinguish between live and dead cells based on their membrane integrity. AO intercalates in the DNA of live cells imparting green shade to the nucleus as an indica-tor of viability. In the case of the dead cell, EtBr intercalates along with AO, resulting in an orange appearance, with an increased orange appearance corresponding to a concomitant increase in the number of dead cells and vice versa.
(§9) After the treatment period, monolayer cells were stained with AO/EtBr stain (1 mg/ml) and were visualized immediately under a fluorescence microscope (Axiovert, Carl Zeiss) at 20× magnification.

C6 rat glioma cell line = experiment: MTT cell viability assay, C6; format: cell-based; settings: for cell viability / anti-proliferative effect (MTT), in words / IC50: C6, 24 hours; for IC50: Rattus norvegicus, individual drug, mean ± SD, no unit in table, test concentrations given in μM, read-out: Inhibitory Concentration at 50% (IC50) C6 Cells
Method: as §1, §2, §3, §4, §5, §6, §7

U87MG human glioma cells = experiment: AO/EtBr dual staining for apoptosis, U87MG; format: cell-based; settings: respective IC50 concentrations
From the text: as §8, §9

[2] = tested on: intracellular ROS in C6 cells; experiment: ROS activity by DCF-DA, C6; format: cell-based, rat; settings: IC50 concentrations, vs control
Method: Determination of ROS activity by DCF-DA. U87MG and C6 cells were seeded at 5×10^3 cells/well in 96 well plates. […] After the treatment period, monolayer cells were stained with DCF-DA stain, and the absorbance was read at 530 nm spectrophotometrically (Molecular Devices Spectra-Max M5, USA). This method is commonly used in ROS investigations and is based on the application of H2DCFDA (acetylated form of DCF), which is consecutively deacetylated inside the cells by intracellular esterase.

[3] = tested on: SOD, CAT, GPx, GSH in U87MG glioma cells; experiment: Antioxidant marker kits (SOD, CAT, GPx, GSH), U87MG; format: cell-based, human; settings: vs control
Method: (§10) Antioxidant markers. […] All experiments were carried out according to the manufacturer's instructions. Three independent biological replicates were performed for each condition.

rat brain tissue = experiment: Western blotting and ELISA of brain tissue proteins; format: in vivo; settings: i.p. 7 days
TBARS in U87MG cells = experiment: TBARS (MDA) assay, U87MG; format: cell-based, human; settings: vs control
Method: Determination of TBARS levels. TBARS (thiobarbituric acid reactive substances), by-products of lipid peroxidation, were analyzed by measuring the concentration of malondialdehyde (MDA). The levels of MDA were measured in cell lysates using TBARS assay (Catalog No. 10009055, Cayman Chemical, Ann Arbor, USA). The concentration of lipid peroxides was calculated as an MDA equivalent using the extinction coefficient for the MDA-TBA complex of 1.56×10^5 M−1 cm^−1 at 532 nm.

[4] = tested on: SOD, CAT, GPx, GSH in C6 glioma cells; experiment: Antioxidant marker kits (SOD, CAT, GPx, GSH), C6; format: cell-based, rat; settings: vs control
Method: as §10

[5] = tested on: human hepatocellular carcinoma (HepG2) cells; experiment: MTT cell viability assay, HepG2; format: cell-based; settings: 24 hours
Method: Cell lines and culture conditions. A human hepatocellular carcinoma (HepG2) and ovarian cancer (SKOV3) cells were obtained from National Centre for Cell Science (NCCS), Pune, India. The cells HepG2 and SKOV3 were sub-cultured in Eagle's Minimum Essential Medium (EMEM) and McCoy's 5a supplemented with 10% FBS at 5% CO2 and 37° C. […] The cells were allowed to attach 70% to the surface prior to treatment. A stock solution of all the drugs (10 mg/ml) was made in distilled H2O and diluted to the required concentrations. Suspensions were aspirated 10 times before treatment. Cells treated with vehicle control were used as a control.

[6] = as used in the triple combination for CI

CN(C)C(=N)N=C(N)N.Cl [MET, 3-(diaminomethylidene)-1,1-dimethylguanidine; hydrochloride]
IC50 [1]: 80 ± 1.19 µM | cell viability / anti-proliferative effect (MTT), in words [1]: reduction in cell viability in a dose-dependent fashion | IC25 U87MG [1, 6]: 34.03 µM | apoptotic cell death (AO/EtBr) (C6 glioma cells; hydrochloride): did not produce any significant apoptotic activity | apoptotic cell death (AO/EtBr) (C6 glioma cells; listed as M, hydrochloride): no apoptosis but loss of cell membrane integrity | cell viability / anti-proliferative effect (MTT), in words (C6 rat glioma cell line): reduction in cell viability in a dose-dependent fashion | IC50 (C6 rat glioma cell line): 77 ± 1.42 µM | IC25 C6 (C6 rat glioma cell line; [6]): 38.40 µM | apoptotic cell death (AO/EtBr) (U87MG human glioma cells; hydrochloride): did not produce any significant apoptotic activity | apoptotic cell death (AO/EtBr) (U87MG human glioma cells; listed as M, hydrochloride): no apoptosis but loss of cell membrane integrity | intracellular ROS levels (DCF-DA fluorescence intensity) [2]: did not show much effect on ROS levels

O=C(O[C@@H]1Cc2c(O)cc(O)cc2O[C@@H]1c1cc(O)c(O)c(O)c1)c1cc(O)c(O)c(O)c1 [EGCG, [(2R,3R)-5,7-dihydroxy-2-(3,4,5-trihydroxyphenyl)-3,4-dihydro-2H-chromen-3-yl] 3,4,5-trihydroxybenzoate]
IC50 [1]: 94 ± 1.39 µM | cell viability / anti-proliferative effect (MTT), in words [1]: reduction in cell viability in a dose-dependent fashion | cell viability / anti-proliferative effect (MTT), in words ([1]; listed as ECGC): did not result in significant inhibitory effects | apoptotic cell death (AO/EtBr) (C6 glioma cells): did not produce any significant apoptotic activity | apoptotic cell death (AO/EtBr) (C6 glioma cells; listed as E): no apoptosis | cell viability / anti-proliferative effect (MTT), in words (C6 rat glioma cell line): reduction in cell viability in a dose-dependent fashion | cell viability / anti-proliferative effect (MTT), in words (C6 rat glioma cell line; listed as ECGC): did not result in significant inhibitory effects | IC50 (C6 rat glioma cell line): 96 ± 1.76 µM | concentrations of antioxidant markers SOD, CAT, GPx, and GSH [3]: significantly enhanced | apoptotic cell death (AO/EtBr) (U87MG human glioma cells): did not produce any significant apoptotic activity | apoptotic cell death (AO/EtBr) (U87MG human glioma cells; listed as E): no apoptosis | protein levels of HIF-1α (rat brain tissue): significantly reduced | protein levels of Nrf-2 (rat brain tissue): significantly reduced | TBARS levels (TBARS in U87MG cells): significantly elevated | concentrations of antioxidant markers SOD, CAT, GPx, and GSH [4]: significantly enhanced | cell viability (MTT), in words [5]: reduction in cell viability in a dose-dependent fashion | intracellular ROS levels (DCF-DA fluorescence intensity) [2]: increased significantly
